Test results: publication PMC11897524 (Frontiers in Pharmacology, 2025)

Tests used:
BRD4 [1] = molecular target: T1, BRD4 (Homo sapiens, UniProt O60885); test: Microscale thermophoresis (MST) assay; type: binding; parameters: purchased Abcam; conditions: MST
STAT3 [2] = molecular target: T2, STAT3 (Homo sapiens, UniProt P40763); test: Microscale thermophoresis (MST) assay; type: binding; parameters: purchased Abcam; conditions: MST
Procedure: The MST experiments were performed using the Monolith NT.115 instrument. BRD4 and STAT3 proteins were labeled with the Lys labeling kit at the final concentration of 100 nM. The compounds, previously suspended in 100% DMSO, were diluted in a buffer containing 20 mM Tris·HCl (pH 7.5), 100 mM NaCl, and 3 mM DTT, achieving a final DMSO concentration of 5%. The compounds were gradient-diluted in 1:1 dilution and starting from 100 μM. The samples were loaded into MST-standard glass capillaries. All the measurements were performed in triplicate using automatically assigned 50% MST power and 20% LED power. Data analysis was performed using GraphPad Prism 7.0 software.

BRD4 [3] = molecular target: T1, BRD4; test: AlphaScreen BRD4 binding inhibition assay; parameters: purchased Abcam
STAT3 [4] = molecular target: T2, STAT3; test: STAT3 binding inhibition assay; parameters: purchased Abcam
BRD4 [5] = test system: BRD4; parameters: method as in Boi et al., 2015; conditions: BRD4 inhibitor; ref Boi et al., 2015; read-out: IC50 value as reported; cited from earlier work
CAKI-2 cells = test: MTT cytotoxicity assay; type: cell-based, human; conditions: Homo sapiens, CAKI-2, cell growth, 48 h treatment, read-out: IC50 (μM) ± SD CAKI-2
Procedure: Human normal renal cortical proximal tubular epithelial cell line HK-2 and human renal carcinoma cell lines CAKI-2, SLR-23, 769-P, A704 and RCC4 were previously purchased from the American Type Culture Collection (ATCC, Manassas, VA, USA) or the European Collection of Cell Cultures (ECACC, Salisbury, United Kingdom). HK2, A704, and RCC4 cells were maintained in high glucose DMEM supplemented with 10% FBS and 1% penicillin/streptomycin. SLR-23 and […] cells were cultured in RPMI-1640 medium with 10% FBS and 1% penicillin/streptomycin. CAKI-2 cells were maintained in McCoy’s 5A medium supplemented with 10% FBS and 1% penicillin/streptomycin. All the cell lines were cultured at 37°C in a humidified atmosphere of 5% CO2 and 95% air.
The effect of hit compounds on cytotoxicity was determined as previously reported ([Ding et al., 2020]). In brief, cells treated with the tested compounds were added with MTT reagent to form formazan crystals, and then the optical density (OD) values at 570 nm were determined after the crystals were dissolved in DMSO. […] Next, the values of IC50 of the selected compounds against more RCC cell lines were determined. The 5 × 10^3 cells in 100 μL culture medium were injected into each well of a 96-well plate and cultured overnight. Add different concentrations of compounds and incubate for 48 h. Then 100 μL of MTT (0.5 mg/mL) solution was added to the 96-well plate and maintained at 37°C for 4 h. Finally, 200 μL of DMSO was added and shaken for 10 min. The OD values at 570 nm were determined by a Synergy 4 microplate reader.

T2 sequence (P40763 whole entry): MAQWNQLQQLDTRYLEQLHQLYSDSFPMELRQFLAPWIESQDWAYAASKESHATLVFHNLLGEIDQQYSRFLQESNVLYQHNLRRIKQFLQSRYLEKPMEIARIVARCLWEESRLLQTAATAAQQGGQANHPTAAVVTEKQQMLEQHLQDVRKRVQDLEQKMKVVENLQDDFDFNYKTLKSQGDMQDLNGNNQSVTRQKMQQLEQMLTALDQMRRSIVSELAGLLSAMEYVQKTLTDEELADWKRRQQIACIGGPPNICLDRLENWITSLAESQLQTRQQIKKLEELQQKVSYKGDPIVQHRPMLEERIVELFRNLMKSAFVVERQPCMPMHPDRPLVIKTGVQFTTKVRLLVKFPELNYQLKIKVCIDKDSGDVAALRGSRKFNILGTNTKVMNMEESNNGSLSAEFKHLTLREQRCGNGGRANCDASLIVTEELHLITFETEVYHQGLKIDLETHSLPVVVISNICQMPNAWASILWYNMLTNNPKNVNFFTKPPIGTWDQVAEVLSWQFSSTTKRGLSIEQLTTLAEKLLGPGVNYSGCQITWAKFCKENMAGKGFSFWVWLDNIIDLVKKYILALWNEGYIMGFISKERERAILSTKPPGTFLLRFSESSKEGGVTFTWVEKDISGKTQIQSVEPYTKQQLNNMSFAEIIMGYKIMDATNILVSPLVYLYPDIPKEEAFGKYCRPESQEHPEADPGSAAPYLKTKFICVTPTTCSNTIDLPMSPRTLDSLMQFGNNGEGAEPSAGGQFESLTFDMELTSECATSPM

| Kd (BRD4 [1]) [nM] | Kd (STAT3 [2]) [nM] | IC50 (BRD4 [3]) [nM] | IC50 (STAT3 [4]) [nM] | STAT3 (IC50, nM) (STAT3 [4]) | Structure (SMILES) | IC50 (BRD4 [5]) [nM] | IC50 (CAKI-2 cells) [µM] |
| --- | --- | --- | --- | --- | --- | --- | --- |
| 12.3 ± 1.16 | 16.4 ± 0.95 | 15.7 ± 1.31 | 20.8 ± 1.94 | – | CCS(=O)(=O)Cc1cnc(Oc2c(F)cc(F)cc2OCc2nc(COc3ccc(/C=C/c4cc(OC)cc(OC)c4)cc3)c[nH]2)c(-c2cc(C)c3c(=O)[nH]ccn23)c1 [BST-1] | – | – |
| 3.62 ± 0.25 | 28.7 ± 3.71 | 4.64 ± 0.17 | 27.2 ± 2.82 | – | CCS(=O)(=O)Cc1cnc(Oc2c(F)cc(F)cc2O/C=C\CC(=O)COc2ccc(/C=C/c3cc(OC)cc(OC)c3)cc2)c(-c2cc(C)c3c(=O)[nH]ccn23)c1 [BST-2] | – | – |
| 5.37 ± 0.49 | 8.42 ± 0.38 | 7.09 ± 0.53 | 11.3 ± 0.95 | – | CCS(=O)(=O)Cc1cnc(Oc2c(F)cc(F)cc2OC[C@@H]2CCC[C@H](COc3ccc(/C=C/c4cc(OC)cc(OC)c4)cc3)N2)c(-c2cc(C)c3c(=O)[nH]ccn23)c1 [BST-3] | – | – |
| 9.72 ± 0.84 | 13.7 ± 0.98 | 10.1 ± 1.15 | 17.8 ± 1.24 | – | CCS(=O)(=O)Cc1cnc(Oc2c(F)cc(F)cc2OCC2CCC(COc3ccc(C=Cc4cc(OC)cc(OC)c4)cc3)N2)c(-c2cc(C)c3c(=O)[nH]ccn23)c1 (stereo not shown) [BST-5] | – | – |
| – | – | – | – | – | Cc1sc2c(c1C)C(c1ccc(Cl)cc1)=N[C@@H](CC(=O)Nc1ccc(O)cc1)c1nnc(C)n1-2 [OTX-015] | ~92 | – |
| – | – | – | – | no inhibition | COc1cc(OC)c2c(=O)[nH]c(-c3cc(C)c(OCCO)c(C)c3)nc2c1 [RVX-208, reference compound] | – | 3.71 ± 0.42 |
